Patent publication US8735398B2 (Bristol-Myers Squibb Company, priority 2009, dated 2014)
Read-outs that look alike come from different tables or passages of the source.

System: HCV 1b genotype
Test: HCV replicon assay (HCV-neo replicon cells, wild-type)
Assay type: cell-based, Hepatitis C virus
Details: HCV 1b genotype replicon
Description: An HCV Replicon assay was utilized in the present disclosure, and was prepared, conducted and validated as described in commonly owned PCT/US2006/022197 and in O'Boyle et al., Antimicrob. Agents Chemother, 49(4):1346-1353 (April 2005). Assay methods incorporating luciferase reporters have also been used as described (Apath.com).
HCV-neo replicon cells and replicon cells containing resistance substitutions in the NS5A region were used to test the currently described family of compounds.
The compounds were determined to have differing degrees of reduced inhibitory activity on cells containing mutations vs. the corresponding inhibitory potency against wild-type cells. Thus, the compounds of the present disclosure can be effective in inhibiting the function of the HCV NS5A protein and are understood to be as effective in combinations as previously described in application PCT/US2006/022197 and commonly owned WO 04/014852. It should be understood that the compounds of the present disclosure can inhibit multiple genotypes of HCV. […] In one embodiment, compounds of the present disclosure are inhibitory versus 1a, 1b, 2a, 2b, 3a, 4a, and 5a genotypes.

[1] = Hepatitis C virus, class symbols, read-out: EC50 Range against HCV 1b
[2] = Hepatitis C virus, class symbol, read-out: EC50 Range against HCV 1b
[3] = class symbol, read-out: EC50 Range against HCV 1b
[4] = Hepatitis C virus, read-out: EC50 1b

Compound | EC50 [1] | EC50 [2] | further results
CC1(C(=O)N2CCC[C@H]2C(=O)Nc2ccc(-c3cnc(-c4ccc(NC(=O)[C@@H]5CCCN5C(=O)C5(C)CC5)cc4)o3)cc2)CC1 [XY-39, (2S,2′S)-N,N′-(1,3-oxazole-2,5-diyldi-4,1-phenylene)bis(1-((1-methylcyclopropyl)carbonyl)-2-pyrrolidinecarboxamide)] | 100 to 999 nM |  | 
C[C@H](NC(=O)[C@@](C)(O)c1ccccc1)C(=O)Nc1ccc(-c2nnc(-c3ccc(NC(=O)[C@H](C)NC(=O)[C@@](C)(O)c4ccccc4)cc3)o2)cc1 [RK-30, (2S,2′S)-N,N′-(1,3,4-oxadiazole-2,5-diylbis(4,1-phenyleneimino((2S)-1-oxo-1,2-propanediyl)))bis(2-hydroxy-2-phenylpropanamide)] |  | 100 to 999 nM | 
Cn1cc(C(=O)C(=O)N2CCC[C@H]2C(=O)Nc2ccc(-c3cnc(-c4ccc(NC(=O)[C@@H]5CCCN5C(=O)C(=O)c5cn(C)c6ccccc56)cc4)o3)cc2)c2ccccc21 [JR-1, (2S,2′S)-N,N′-(2,5-oxazolediyldi-4,1-phenylene)bis[1-[2-(1-methyl-1H-indol-3-yl)-1,2-dioxoethyl]-2-pyrrolidinecarboxamide]] | 100 to 999 nM |  | 
CC(C)(C)OC(=O)N1CCCC1(Cc1ccccc1)C(=O)N1CCC[C@H]1C(=O)Nc1ccc(-c2cnc(-c3ccc(NC(=O)[C@@H]4CCCN4C(=O)C4(Cc5ccccc5)CCCN4C(=O)OC(C)(C)C)cc3)o2)cc1 (stereo partly drawn) [Example D-33, di-tert-butyl 2,2′-(1,3-oxazole-2,5-diylbis(4,1-phenylenecarbamoyl(2S)-2,1-pyrrolidinediylcarbonyl))bis(2-benzyl-1-pyrrolidinecarboxylate)] |  |  | EC50 [3]: 1000 to 10000 nM
COc1cccc2c(C(=O)N3CCC[C@H]3C(=O)Nc3ccc(-c4nnc(-c5ccc(NC(=O)[C@@H]6CCCN6C(=O)c6nc(Cl)cc7c(OC)cccc67)cc5)o4)cc3)nc(Cl)cc12 [RK-32, (2S,2′S)-N,N′-(1,3,4-oxadiazole-2,5-diyldi-4,1-phenylene)bis(1-((3-chloro-5-methoxy-1-isoquinolinyl)carbonyl)-2-pyrrolidinecarboxamide)] |  | 100 to 999 nM | 
COc1ccccc1CC(=O)N1CCC[C@H]1C(=O)Nc1ccc(-c2cnc(-c3ccc(NC(=O)[C@@H]4CCCN4C(=O)Cc4ccccc4OC)cc3)o2)cc1 [XY-35, (2S,2′S)-N,N′-(1,3-oxazole-2,5-diyldi-4,1-phenylene)bis(1-((2-methoxyphenyl)acetyl)-2-pyrrolidinecarboxamide)] | 100 to 999 nM |  | 
O=C(Nc1ccc(-c2nnc(-c3ccc(NC(=O)[C@@H]4CCCN4C(=O)OCc4ccccc4)cc3)o2)cc1)[C@@H]1CCCN1C(=O)OCc1ccccc1 [MS-8, (2S,2′S)-2,2′-[1,3,4-oxadiazole-2,5-diylbis(4,1-phenyleneiminocarbonyl)]bis-1-pyrrolidinecarboxylic acid, bis(phenylmethyl) ester] |  | 4.57 to 99 nM | EC50 [4]: 90 nM
CC(=O)N1CCC[C@H]1C(=O)Nc1ccc(-c2nnc(-c3ccc(NC(=O)[C@@H]4CCCN4C(=O)Cc4ccccc4)cc3)o2)cc1 [Example D-54, (2S)-1-acetyl-N-[4-[5-[4-[[[(2S)-1-(phenylacetyl)-2-pyrrolidinyl]carbonyl]amino]phenyl]-1,3,4-oxadiazol-2-yl]phenyl]-2-pyrrolidinecarboxamide] |  | 1000 to 10000 nM | EC50 [4]: 4760 nM
C[C@H](O)[C@@H](NC(=O)c1ccccc1)C(=O)N1CCC[C@H]1C(=O)Nc1ccc(-c2cnc(-c3ccc(NC(=O)[C@@H]4CCCN4C(=O)[C@H](NC(=O)c4ccccc4)[C@H](C)O)cc3)o2)cc1 [Example D-18, (R,S,2S,2′S)-N,N′-(4,4′-(oxazole-2,5-diyl)bis(4,1-phenylene))bis(1-((2R,3S)-2-benzamido-3-hydroxybutanoyl)pyrrolidine-2-carboxamide)] |  |  | EC50 [3]: 1000 to 10000 nM; EC50 (read-out: EC50 1b): 5960 nM
O=C(Nc1ccc(-c2cnc(-c3ccc(NC(=O)[C@@H]4CCCN4C(=O)[C@H](O)c4ccccc4)cc3)o2)cc1)[C@@H]1CCCN1C(=O)[C@H](O)c1ccccc1 [JG-23, (2S,2′S)-N,N′-(1,3-oxazole-2,5-diyldi-4,1-phenylene)bis(1-((2R)-2-hydroxy-2-phenylacetyl)-2-pyrrolidinecarboxamide)] |  | < 4.57 nM | 
COc1cccc(CC(=O)N2C[C@H](OC(C)(C)C)C[C@H]2C(=O)Nc2ccc(-c3cnc(-c4ccc(NC(=O)[C@@H]5C[C@@H](OC(C)(C)C)CN5C(=O)Cc5cccc(OC)c5)cc4)o3)cc2)c1 [XY-77, (2S,4R,2′S,4′R)-N,N′-(1,3-oxazole-2,5-diyldi-4,1-phenylene)bis(4-tert-butoxy-1-((3-methoxyphenyl)acetyl)-2-pyrrolidinecarboxamide)] | 100 to 999 nM |  | 
Cn1cccc1C(=O)N1C[C@H](OC(C)(C)C)C[C@H]1C(=O)Nc1ccc(-c2cnc(-c3ccc(NC(=O)[C@@H]4C[C@@H](OC(C)(C)C)CN4C(=O)c4cccn4C)cc3)o2)cc1 [XY-71, (2S,4R,2′S,4′R)-N,N′-(1,3-oxazole-2,5-diyldi-4,1-phenylene)bis(4-tert-butoxy-1-((1-methyl-1H-pyrrol-2-yl)carbonyl)-2-pyrrolidinecarboxamide)] | 1000 to 10000 nM |  | 
COc1cccc2c(C(=O)N3CCC[C@H]3C(=O)Nc3ccc(-c4ccc(-c5ccc(NC(=O)[C@@H]6CCCN6C(=O)c6nc(Cl)cc7c(OC)cccc67)cc5)o4)cc3)nc(Cl)cc12 [JG-60, (2S,2′S)-N,N′-(2,5-furandiyldi-4,1-phenylene)bis(1-((3-chloro-5-methoxy-1-isoquinolinyl)carbonyl)-2-pyrrolidinecarboxamide)] |  | 1000 to 10000 nM | 
CC(=O)N1CCC[C@H]1C(=O)Nc1ccc(-c2nnc(-c3ccc(NC(=O)[C@@H]4CCCN4C(C)=O)cc3)o2)cc1 [Example D-55, (2S,2′S)-N,N′-(1,3,4-oxadiazole-2,5-diyldi-4,1-phenylene)bis[1-acetyl-2-pyrrolidinecarboxamide]] |  | 1000 to 10000 nM | EC50 [4]: 10000 nM
O=C(Nc1ccc(-c2ccc(-c3ccc(NC(=O)[C@@H]4CCCN4C(=O)[C@H](O)c4ccccc4)cc3)o2)cc1)[C@@H]1CCCN1C(=O)[C@H](O)c1ccccc1 [JG-57, (2S,2′S)-N,N′-(2,5-furandiyldi-4,1-phenylene)bis(1-((2R)-2-hydroxy-2-phenylacetyl)-2-pyrrolidinecarboxamide)] |  |  | EC50 [3]: 100 to 999 nM
CC(C)C(=O)N1CCC[C@H]1C(=O)Nc1ccc(-c2cc(-c3ccc(NC(=O)[C@@H]4CCCN4C(=O)C(C)C)cc3)[nH]n2)cc1 [OL-31, (2S,2′S)-N,N′-(1H-pyrazole-3,5-diyldi-4,1-phenylene)bis(1-isobutyryl-2-pyrrolidinecarboxamide)] |  | 100 to 999 nM | 
O=C(C(=O)N1CCC[C@H]1C(=O)Nc1ccc(-c2cnc(-c3ccc(NC(=O)[C@@H]4CCCN4C(=O)C(=O)c4ccccc4)cc3)o2)cc1)c1ccccc1 [JG-27, (2S,2′S)-N,N′-(1,3-oxazole-2,5-diyldi-4,1-phenylene)bis(1-(oxo(phenyl)acetyl)-2-pyrrolidinecarboxamide)] |  | 4.57 to 99 nM | 
O=C(Nc1ccc(-c2cnc(-c3ccc(NC(=O)[C@@H]4CCCN4C(=O)C(O)C(F)(F)F)cc3)o2)cc1)[C@@H]1CCCN1C(=O)C(O)C(F)(F)F (stereo partly drawn) [JR-2, (2S,2′S)-N,N′-(2,5-oxazolediyldi-4,1-phenylene)bis[1-(3,3,3-trifluoro-2-hydroxy-1-oxopropyl)-2-pyrrolidinecarboxamide]] | 100 to 999 nM |  | 
O=C(Nc1ccc(-c2cc(-c3ccc(NC(=O)[C@@H]4CCCN4C(=O)[C@H](O)c4ccccc4)cc3)[nH]n2)cc1)[C@@H]1CCCN1C(=O)[C@H](O)c1ccccc1 [JG-32, (2S,2′S)-N,N′-(1H-pyrazole-3,5-diyldi-4,1-phenylene)bis(1-((2R)-2-hydroxy-2-phenylacetyl)-2-pyrrolidinecarboxamide)] |  | < 4.57 nM | 
Cn1cnc(CC(=O)N2CCC[C@H]2C(=O)Nc2ccc(-c3cnc(-c4ccc(NC(=O)[C@@H]5CCCN5C(=O)Cc5cn(C)cn5)cc4)o3)cc2)c1 [XY-42, (2S,2′S)-N,N′-(1,3-oxazole-2,5-diyldi-4,1-phenylene)bis(1-((1-methyl-1H-imidazol-4-yl)acetyl)-2-pyrrolidinecarboxamide)] | 1000 to 10000 nM |  | 
Cc1cccc(CC(=O)N2C[C@H](O)C[C@H]2C(=O)Nc2ccc(-c3cnc(-c4ccc(NC(=O)[C@@H]5C[C@@H](O)CN5C(=O)Cc5cccc(C)c5)cc4)o3)cc2)c1 [XY-51, (2S,4R,2′S,4′R)-N,N′-(1,3-oxazole-2,5-diyldi-4,1-phenylene)bis(4-hydroxy-1-((3-methylphenyl)acetyl)-2-pyrrolidinecarboxamide)] | 100 to 999 nM |  | 
O=C(Nc1ccc(-c2nnc(-c3ccc(NC(=O)[C@@H]4CCC(=O)N4C(=O)OCc4ccccc4)cc3)o2)cc1)[C@@H]1CCC(=O)N1C(=O)OCc1ccccc1 [RK-2, dibenzyl (2S,2′S)-2,2′-(1,3,4-oxadiazole-2,5-diylbis(4,1-phenylenecarbamoyl))bis(5-oxo-1-pyrrolidinecarboxylate)] |  | 1000 to 10000 nM | 
CN(C)[C@H](C(=O)N1CCC[C@H]1C(=O)Nc1ccc(-c2nnc(-c3ccc(NC(=O)[C@@H]4CCCN4C(=O)[C@H](c4ccccc4)N(C)C)cc3)o2)cc1)c1ccccc1 [RK-39, (2S,2′S)-N,N′-(1,3,4-oxadiazole-2,5-diyldi-4,1-phenylene)bis(1-((2S)-2-(dimethylamino)-2-phenylacetyl)-2-pyrrolidinecarboxamide)] | < 4.57 nM |  | EC50 [4]: < 5 nM
